Target: CYP2C9 (Homo sapiens, UniProt P11712)
Test: Inhibition Assay: Inhibition assay using P450 CYP enzymes.

CYP2C9, sequence (P11712 whole entry): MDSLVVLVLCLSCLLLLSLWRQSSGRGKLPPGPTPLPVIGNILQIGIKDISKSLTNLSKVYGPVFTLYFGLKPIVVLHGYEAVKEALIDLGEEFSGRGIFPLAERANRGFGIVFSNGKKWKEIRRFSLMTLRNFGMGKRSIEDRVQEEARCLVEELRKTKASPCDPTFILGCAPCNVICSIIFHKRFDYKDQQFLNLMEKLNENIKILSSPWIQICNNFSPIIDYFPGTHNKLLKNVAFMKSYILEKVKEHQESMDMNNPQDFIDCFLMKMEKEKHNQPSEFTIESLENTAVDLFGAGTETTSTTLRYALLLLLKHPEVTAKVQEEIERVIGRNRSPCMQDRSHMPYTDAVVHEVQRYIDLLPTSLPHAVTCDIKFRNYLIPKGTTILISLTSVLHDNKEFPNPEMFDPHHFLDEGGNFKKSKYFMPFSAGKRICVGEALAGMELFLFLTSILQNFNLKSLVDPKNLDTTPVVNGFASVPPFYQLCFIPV

IC50: 30 nM
Compound: CNC(=O)/C=C/c1cc(OC)cc(-c2ccc3cc(OC)ccc3c2)c1

— ChEMBL document CHEMBL3638998, “17Beta-hydroxysteroid dehydrogenase type 1 inhibitors for the treatment of hormone-related diseases” (2013)
